Assay results from ChEMBL document CHEMBL2384989, “Abietane diterpenoids and a sesquiterpene pyridine alkaloid from Euonymus lutchuensis” (J Nat Prod, 2013).
Values after ≈ are worked out from the molar mass of the structure shown.

What was measured:
Format in all cases: functional, cell-based
[1] = system: HL-60; test: Cytotoxicity against human HL60 cells after 48 hrs by MTT assay; conditions: HL-60, 48 h
[2] = system: HCT-116; test: Cytotoxicity against human HCT116 cells after 48 hrs by MTT assay; conditions: HCT-116, 48 h
[3] = system: P388; test: Cytotoxicity against mouse P388 cells after 48 hrs by MTT assay; conditions: P388, 48 h

Compound: CC(CO)c1ccc2c(c1)CC[C@H]1C(C)(C)[C@@H](O)C(=O)C[C@]21C (stereo partly specified)
- IC50 [1]: > 5 µg/mL
- IC50 [2]: > 5 µg/mL
- IC50 [3]: > 5 µg/mL

Compound: CC(O)c1ccc2c(c1)CC[C@H]1C(C)(C)C(=O)CC[C@]21C (stereo partly specified)
- IC50 [1]: > 5 µg/mL
- IC50 [2]: > 5 µg/mL
- IC50 [3]: > 5 µg/mL

Compound: CC(CO)c1cc2c(cc1O)[C@@]1(C)CCC(=O)C(C)(C)[C@@H]1CC2 (stereo partly specified)
- IC50 ([1]; read-out: IC50): < 5 µg/mL
- IC50 ([2]; read-out: IC50): < 5 µg/mL
- IC50 ([3]; read-out: IC50): < 5 µg/mL

Compound: CC(=O)OC[C@]12[C@H](OC(C)=O)[C@H](OC(C)=O)[C@@H]3[C@@H](O)[C@@]14OC3(C)COC(=O)c1cccnc1[C@H](C)[C@@H](C)C(=O)O[C@H]([C@H](O)[C@@H]2OC(=O)c1ccccc1)C4(C)O (stereo partly specified) [EUOLUCHUMINE]
- IC50 [1]: > 5 µg/mL
- IC50 [2]: > 5 µg/mL
- IC50 [3]: > 5 µg/mL

Compound: CC(CO)c1ccc2c(c1)CC[C@H]1C(C)(C)C(=O)CC[C@]21C (stereo partly specified)
- IC50 [1]: > 5 µg/mL
- IC50 [2]: > 5 µg/mL
- IC50 [3]: > 5 µg/mL

Compound: CC(C)c1cc2c(cc1O)C[C@@]13CCCC(C)(C)[C@@H]1C[C@@H]2O3
- IC50 [1]: > 5 µg/mL
- IC50 [2]: > 5 µg/mL
- IC50 [3]: > 5 µg/mL

Compound: CC(=O)O[C@H]1C(=O)[C@@]2(C)[C@H]([C@H](OC(=O)c3ccccc3)[C@]3(O)C[C@H](OC(=O)[C@H](O)[C@@H](NC(=O)c4ccccc4)c4ccccc4)C(C)=C1C3(C)C)[C@]1(OC(C)=O)CO[C@@H]1C[C@@H]2O [PACLITAXEL]
- IC50 ([1]; read-out: IC50): 0.005 µg/mL (≈ 0.00586 µM)
- IC50 ([2]; read-out: IC50): 0.045 µg/mL (≈ 0.0527 µM)
- IC50 ([3]; read-out: IC50): 0.2 µg/mL (≈ 0.234 µM)
